The target in one assay is T1, mouse TGR5 receptor (Mus musculus, UniProt Q80SS6).
T1 construct: host or cells: HEK293-EBNA (293 c18, ATCC CRL10852)
T1 sequence (Q80SS6 1-329): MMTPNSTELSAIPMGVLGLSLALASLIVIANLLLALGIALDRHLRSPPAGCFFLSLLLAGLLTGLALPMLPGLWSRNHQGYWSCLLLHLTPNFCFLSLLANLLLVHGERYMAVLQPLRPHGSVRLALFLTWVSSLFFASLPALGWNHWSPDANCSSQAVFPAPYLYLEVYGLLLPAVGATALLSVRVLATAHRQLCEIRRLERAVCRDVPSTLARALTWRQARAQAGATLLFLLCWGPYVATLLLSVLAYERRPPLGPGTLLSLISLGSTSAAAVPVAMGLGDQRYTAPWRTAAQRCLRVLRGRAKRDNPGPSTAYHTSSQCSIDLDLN
The experiment in a line: Mouse TGR5 HTRF cAMP production assay (HEK293-EBNA cells, Cisbio cAMP HiRange kit). Conditions: HEK293-EBNA cells overexpressing mouse TGR5, HTRF cAMP assay. The class given is cell-based. In outline: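 HEK293-EBNA cells stably expressing mouse TGR5 (episomal vector) were suspended in serum-free DMEM with 500 μM IBMX and exposed to 12-point half-log compound dilutions for 1 h at room temperature. cAMP was detected by HTRF (d2-cAMP/anti-cAMP cryptate, 1 h, room temperature), giving EC50 from duplicates.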
A general note: TR-FRET usually uses a lanthanide donor and a delayed reading to cut background.

Another assay has as its system Mouse STC-1 cells. The experiment in a line: STC-1 GLP-1 assay (GLP-1 secretion). Format: cell-based. In outline:
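Mouse STC-1 cells were plated two days ahead in DMEM with 10% charcoal-dextran stripped FBS, then exposed to compound in HBSS with protease inhibitors, DPP-IV inhibitor and 0.1% fatty acid free BSA for 2 h at 37° C. Active GLP-1 in supernatant was quantified by HTRF; EC50 derived from 12-point half-log curves.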

Where [1] appears, read: Mouse STC-1 cells, GLP-1 secretion, 2 h, read-out: Mouse STC-1 HTRF GLP-1 Activity (EC50).

For 21 compounds, EC50 results are on record in patent US10654834B2 (Venenum Biodesign, LLC, priority 2016, dated 2020).

Structures are written as SMILES. Read-outs that look alike come from different tables or passages of the source. Some results are limits rather than exact numbers.

For the compound `N#Cc1ccc(CCNC(=O)[C@@H]2CCCN2c2cc(-c3ccc(CO)cc3)cc(C(F)(F)F)n2)cc1` [Compound 204, (S)—N-(4-cyanophenethyl)-1-(4-(4-(hydroxymethyl)phenyl)-6-(trifluoromethyl)pyridin-2-yl)pyrrolidine-2-carboxamide], the results for the EC50 at mouse TGR5 receptor and in the assay on Mouse STC-1 cells (setting [1]) were less than 100 nM and 100 to 999 nM, respectively.
Taken in the same sequence, the figures for `N#Cc1ccc(CCNC(=O)[C@@H]2CCCN2c2cc(-c3ccc(CCC(=O)NCS(=O)(=O)O)cc3)cc(C(F)(F)F)n2)cc1` [Compound 206, (S)-(3-(4-(2-(2-((4-cyanophenethyl)carbamoyl)pyrrolidin-1-yl)-6-(trifluoromethyl)pyridin-4-yl)phenyl)propanamido)methanesulfonic acid] were less than 100 nM and 100 to 999 nM.
Taken in the same sequence, the figures for `N#Cc1ccc(CCNC(=O)[C@@H]2CCN2c2cc(N3CCC(CCO)CC3)nc(C(F)(F)F)n2)cc1` [Compound 223, (S)-N-(4-cyanophenethyl)-1-(6-(4-(2-hydroxyethyl)piperidin-1-yl)-2-(trifluoromethyl)pyrimidin-4-yl)azetidine-2-carboxamide] were less than 100 nM and less than 100 nM.
The like results for `N#Cc1ccc(CCNC(=O)[C@@H]2CCN2c2cc(N3CCC(CCCC(=O)O)CC3)nc(C(F)(F)F)n2)cc1` [Compound 231, (S)-4-(1-(6-(2-((4-cyanophenethyl)carbamoyl)azetidin-1-yl)-2-(trifluoromethyl)pyrimidin-4-yl)piperidin-4-yl)butanoic acid] were, in that order, less than 100 nM and 100 to 999 nM.
Turning to `O=C(O)CCC1CCN(c2cc(N3CC[C@H]3C(=O)NCCc3ccc(C(F)(F)F)cc3)nc(C(F)(F)F)n2)CC1` [Compound 232, (S)-3-(1-(2-(trifluoromethyl)-6-(2-((4-(trifluoromethyl)phenethyl)carbamoyl)azetidin-1-yl)pyrimidin-4-yl)piperidin-4-yl)propanoic acid], the EC50 at mouse TGR5 receptor and with Mouse STC-1 cells (setting [1]) was less than 100 nM throughout.
On to `COc1cc(C(F)(F)F)ccc1CCNC(=O)[C@@H]1CCN1c1cc(N2CCC(CCC(=O)O)CC2)nc(C(F)(F)F)n1` [Compound 239, (S)-3-(1-(6-(2-((2-methoxy-4-(trifluoromethyl)phenethyl)carbamoyl)azetidin-1-yl)-2-(trifluoromethyl)pyrimidin-4-yl)piperidin-4-yl)propanoic acid], for which the EC50 on mouse TGR5 receptor and in the assay with Mouse STC-1 cells (setting [1]) was less than 100 nM in each case.
`N#Cc1ccc(CCNC(=O)[C@@H]2CCN2c2cc(N3CCC(CCCC(=O)NCCS(=O)(=O)O)CC3)nc(C(F)(F)F)n2)cc1` [Compound 249, (S)-2-(4-(1-(6-(2-((4-cyanophenethyl)carbamoyl)azetidin-1-yl)-2-(trifluoromethyl)pyrimidin-4-yl)piperidin-4-yl)butanamido)ethanesulfonic acid]: the EC50 at mouse TGR5 receptor and in the assay with Mouse STC-1 cells (setting [1]) was less than 100 nM in each case.
`N#Cc1ccc(CCNC(=O)[C@@H]2CCN2c2cc(N3CCC(CCCC(=O)NCS(=O)(=O)O)CC3)nc(C(F)(F)F)n2)cc1` [Compound 250, (S)-(4-(1-(6-(2-((4-cyanophenethyl)carbamoyl)azetidin-1-yl)-2-(trifluoromethyl)pyrimidin-4-yl)piperidin-4-yl)butanamido)methanesulfonic acid]: the EC50 on mouse TGR5 receptor and in the assay with Mouse STC-1 cells (setting [1]) was less than 100 nM each time.
Consider `O=C(CCC1CCN(c2cc(N3CC[C@H]3C(=O)NCCc3ccc(C(F)(F)F)cc3)nc(C(F)(F)F)n2)CC1)NCS(=O)(=O)O` [Compound 253, (S)-(3-(1-(2-(trifluoromethyl)-6-(2-((4-(trifluoromethyl)phenethyl)-carbamoyl)azetidin-1-yl)pyrimidin-4-yl)piperidin-4-yl)propanamido)-methanesulfonic acid], for which the EC50 on mouse TGR5 receptor and with Mouse STC-1 cells (setting [1]) was less than 100 nM each time.
Regarding `COc1cc(C(F)(F)F)ccc1CCNC(=O)[C@@H]1CCN1c1cc(N2CCC(CCC(=O)NCCS(=O)(=O)O)CC2)nc(C(F)(F)F)n1` [Compound 259], the EC50 on mouse TGR5 receptor was less than 100 nM; in the assay on Mouse STC-1 cells (setting [1]), 100 to 999 nM.
As to `N#Cc1ccc(CCNC(=O)[C@@H]2CCN2c2cc(N3CCC(CCCC(=O)NC[C@@H](O)[C@H](O)[C@@H](O)[C@@H](O)CO)CC3)nc(C(F)(F)F)n2)cc1` [Compound 260, (S)—N-(4-cyanophenethyl)-1-(6-(4-(4-oxo-4-(((2R,3S,4S,5S)-2,3,4,5,6-pentahydroxyhexyl)amino)butyl)piperidin-1-yl)-2-(trifluoromethyl)pyrimidin-4-yl)azetidine-2-carboxamide], the EC50 at mouse TGR5 receptor was less than 100 nM; with Mouse STC-1 cells (setting [1]) it was 100 to 999 nM.
Taken in the same sequence, the figures for `N#Cc1ccc(CCNC(=O)[C@@H]2CCN2c2cc(N3CCC(CCCC(=O)NC[C@@H](O)CO)CC3)nc(C(F)(F)F)n2)cc1` [Compound 261, (S)-N-(4-cyanophenethyl)-1-(6-(4-(4-(((R)-2,3-dihydroxypropyl)amino)-4-oxobutyl)piperidin-1-yl)-2-(trifluoromethyl)pyrimidin-4-yl)azetidine-2-carboxamide] were less than 100 nM and 100 to 999 nM.
Take `N#Cc1ccc(CCNC(=O)[C@@H]2CCN2c2cc(N3CCC(CCNC(=O)NCCC(=O)O)CC3)nc(C(F)(F)F)n2)cc1` [Compound 268, (S)-3-(3-(2-(1-(6-(2-((4-cyanophenethyl)carbamoyl)azetidin-1-yl)-2-(trifluoromethyl)pyrimidin-4-yl)piperidin-4-yl)ethyl)ureido)propanoic acid]: the EC50 was less than 100 nM at mouse TGR5 receptor; less than 100 nM in the assay on Mouse STC-1 cells (setting [1]); approximately 55 nM with Mouse STC-1 cells (Mus musculus, STC-1, read-out: EC50 concentration of GLP-1 stimulation in STC-1 cells).
For the compound `N#Cc1ccc(CCNC(=O)[C@@H]2CCN2c2cc(N3CCC(CCNC(=O)NCCS(N)(=O)=O)CC3)nc(C(F)(F)F)n2)cc1` [Compound 269, (S)—N-(4-cyanophenethyl)-1-(6-(4-(2-(3-(2-sulfamoylethyl)ureido)ethyl)piperidin-1-yl)-2-(trifluoromethyl)pyrimidin-4-yl)azetidine-2-carboxamide], the EC50 at mouse TGR5 receptor and in the assay with Mouse STC-1 cells (setting [1]) was less than 100 nM each time.
Regarding `N#Cc1ccc(CCNC(=O)[C@@H]2CCN2c2cc(N3CCC(CCNC(=O)NCS(=O)(=O)O)CC3)nc(C(F)(F)F)n2)cc1` [Compound 270, (S)-(3-(2-(1-(6-(2-((4-cyanophenethyl)carbamoyl)azetidin-1-yl)-2-(trifluoromethyl)pyrimidin-4-yl)piperidin-4-yl)ethyl)ureido)-methanesulfonic acid], the EC50 at mouse TGR5 receptor and in the assay with Mouse STC-1 cells (setting [1]) was less than 100 nM throughout.
`N#Cc1ccc(CCNC(=O)[C@@H]2CCN2c2cc(N3CCC(CCNC(=O)NCCS(=O)(=O)O)CC3)nc(C(F)(F)F)n2)cc1` [Compound 271, (S)-2-(3-(2-(1-(6-(2-((4-cyanophenethyl)carbamoyl)azetidin-1-yl)-2-(trifluoromethyl)pyrimidin-4-yl)piperidin-4-yl)ethyl)ureido)-ethanesulfonic acid]: the EC50 on mouse TGR5 receptor and in the assay on Mouse STC-1 cells (setting [1]) was less than 100 nM throughout.
For `N[C@@H](CS(=O)(=O)O)C(=O)NCCC1CCN(c2cc(N3CC[C@H]3C(=O)NCCc3ccc(C(F)(F)F)cc3)nc(C(F)(F)F)n2)CC1` [Compound 278, (R)-2-amino-3-oxo-3-((2-(1-(2-(trifluoromethyl)-6-((S)-2-((4-(trifluoromethyl)-phenethyl)carbamoyl)azetidin-1-yl)pyrimidin-4-yl)piperidin-4-yl)ethyl)amino)-propane-1-sulfonic acid], the EC50 on mouse TGR5 receptor and with Mouse STC-1 cells (setting [1]) was less than 100 nM in each case.
Turning to `N#Cc1ccc(CCNC(=O)[C@@H]2CCN2c2cc(N3CCC(CCCC(=O)NCCNC(=N)N)CC3)nc(C(F)(F)F)n2)cc1` [Compound 282, (S)—N-(4-cyanophenethyl)-1-(6-(4-(4-((2-guanidinoethyl)amino)-4-oxobutyl)piperidin-1-yl)-2-(trifluoromethyl)pyrimidin-4-yl)azetidine-2-carboxamide], the EC50 was less than 100 nM on mouse TGR5 receptor and 100 to 999 nM in the assay with Mouse STC-1 cells (setting [1]).
Taken in the same sequence, the figures for `N#Cc1ccc(CCNC(=O)[C@@H]2CCN2c2cc(N3CCC(CCCC(=O)NCCCCNC(=N)N)CC3)nc(C(F)(F)F)n2)cc1` [Compound 283, (S)-N-(4-cyanophenethyl)-1-(6-(4-(4-((4-guanidinobutyl)amino)-4-oxobutyl)piperidin-1-yl)-2-(trifluoromethyl)pyrimidin-4-yl)azetidine-2-carboxamide] were less than 100 nM and 100 to 999 nM.
Taken in the same sequence, the figures for `N#Cc1ccc(CCNC(=O)[C@@H]2CCN2c2cc(N3CCC(CCCC(=O)NCCOCCNC(=N)N)CC3)nc(C(F)(F)F)n2)cc1` [Compound 284, (S)-N-(4-cyanophenethyl)-1-(6-(4-(4-((2-(2-guanidinoethoxy)-ethyl)amino)-4-oxobutyl)piperidin-1-yl)-2-(trifluoromethyl)pyrimidin-4-yl)azetidine-2-carboxamide] were less than 100 nM and 100 to 999 nM.
Taken in the same sequence, the figures for `N#Cc1ccc(CCNC(=O)[C@@H]2CCN2c2cc(N3CCC(CCNC(=N)N)CC3)nc(C(F)(F)F)n2)cc1` [Compound 285, (S)-N-(4-cyanophenethyl)-1-(6-(4-(2-guanidinoethyl)piperidin-1-yl)-2-(trifluoromethyl)pyrimidin-4-yl)azetidine-2-carboxamide] were less than 100 nM and less than 100 nM.
